Assay results: publication PMC7004565, “Nucleotide inhibition of the pancreatic ATP-sensitive K^+ channel explored with patch-clamp fluorometry” (eLife, 2020)
Blank lines part the entries; values can stand above or below the compound they belong to.

Assays:
Kir6.2-GFP + SUR1 [1] = target: T1, Kir6.2-GFP + SUR1 (Homo sapiens, UniProt Q14654); assay: Current inhibition in excised inside-out patches; assay type: biochemical; design: ANAP labelling is specific and only full-length Kir6.2 is expressed at the cell membrane; expressed in transfected cells; host or cells: HEK-293T
T1 sequence (Q09428 whole entry partner, one chain of several): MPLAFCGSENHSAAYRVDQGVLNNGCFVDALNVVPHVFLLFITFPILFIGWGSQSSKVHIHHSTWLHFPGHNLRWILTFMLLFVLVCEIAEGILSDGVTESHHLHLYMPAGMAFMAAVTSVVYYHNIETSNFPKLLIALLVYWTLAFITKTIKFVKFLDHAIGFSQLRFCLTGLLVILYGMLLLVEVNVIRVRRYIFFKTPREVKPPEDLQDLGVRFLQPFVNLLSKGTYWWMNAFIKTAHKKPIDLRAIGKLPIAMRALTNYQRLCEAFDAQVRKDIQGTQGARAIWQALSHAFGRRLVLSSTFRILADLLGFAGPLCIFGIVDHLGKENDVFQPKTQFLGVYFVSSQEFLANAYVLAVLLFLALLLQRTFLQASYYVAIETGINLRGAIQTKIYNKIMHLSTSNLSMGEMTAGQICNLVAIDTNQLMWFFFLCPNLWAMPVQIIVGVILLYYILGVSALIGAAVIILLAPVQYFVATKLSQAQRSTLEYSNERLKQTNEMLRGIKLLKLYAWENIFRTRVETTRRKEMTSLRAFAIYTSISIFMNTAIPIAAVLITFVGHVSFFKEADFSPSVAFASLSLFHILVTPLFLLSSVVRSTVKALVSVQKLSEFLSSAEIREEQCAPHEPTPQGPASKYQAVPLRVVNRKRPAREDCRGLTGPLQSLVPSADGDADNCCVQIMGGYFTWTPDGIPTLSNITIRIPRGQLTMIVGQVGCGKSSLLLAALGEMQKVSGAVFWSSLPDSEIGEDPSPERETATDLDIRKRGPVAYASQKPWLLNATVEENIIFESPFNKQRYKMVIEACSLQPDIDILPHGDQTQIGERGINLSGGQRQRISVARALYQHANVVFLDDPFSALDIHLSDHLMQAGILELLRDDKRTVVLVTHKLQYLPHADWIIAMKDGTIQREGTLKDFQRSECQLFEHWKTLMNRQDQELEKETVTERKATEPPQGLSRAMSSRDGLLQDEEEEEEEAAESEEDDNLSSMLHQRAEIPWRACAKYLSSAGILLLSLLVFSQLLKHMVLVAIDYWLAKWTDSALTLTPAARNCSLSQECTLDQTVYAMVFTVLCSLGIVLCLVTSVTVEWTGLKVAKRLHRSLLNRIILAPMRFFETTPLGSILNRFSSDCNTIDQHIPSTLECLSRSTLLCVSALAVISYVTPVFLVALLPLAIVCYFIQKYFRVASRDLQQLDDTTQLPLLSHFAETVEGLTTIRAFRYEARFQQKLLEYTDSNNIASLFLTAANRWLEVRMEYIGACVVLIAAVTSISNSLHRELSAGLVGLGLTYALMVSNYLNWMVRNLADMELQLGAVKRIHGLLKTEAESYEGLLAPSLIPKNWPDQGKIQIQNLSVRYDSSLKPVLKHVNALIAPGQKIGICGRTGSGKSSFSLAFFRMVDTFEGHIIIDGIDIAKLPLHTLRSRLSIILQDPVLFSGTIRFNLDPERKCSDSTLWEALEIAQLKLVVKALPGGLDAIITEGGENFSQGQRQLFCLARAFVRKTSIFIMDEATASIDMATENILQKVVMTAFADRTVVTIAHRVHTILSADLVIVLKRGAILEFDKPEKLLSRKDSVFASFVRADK
Method: (§1) Currents were measured from patches from cells expressing KATP that were excised in the absence of Mg^2+. Under such conditions, nucleotides can bind to both sites on SUR1, but no activation occurs, allowing inhibitory currents to be measured in isolation ([Gribble et al., 1998]; [Ueda et al., 1999]; [Puljung et al., 2019]).

Kir6.2-GFP + SUR1 [2] = target: T1, Kir6.2-GFP + SUR1; assay: Current inhibition in excised inside-out patches (patch-clamp fluorometry); assay type: biochemical; design: full length, fully ANAP-labelled Kir6.2 protein was produced and successfully trafficked to the membrane in the presence of SUR1; expressed in transfected cells; host or cells: HEK-293T
Method: as §1
Currents were measured as described above.

Kir6.2-GFP (no SUR1) = target: T2, Kir6.2-GFP (no SUR1) (Homo sapiens, UniProt Q14654); assay: Current inhibition in excised inside-out patches; assay type: biochemical
T2 construct: ANAP labelling is specific and only full-length Kir6.2 is expressed at the cell membrane; expressed in transfected cells; host or cells: HEK-293T
T2 sequence (Q14654 1-390): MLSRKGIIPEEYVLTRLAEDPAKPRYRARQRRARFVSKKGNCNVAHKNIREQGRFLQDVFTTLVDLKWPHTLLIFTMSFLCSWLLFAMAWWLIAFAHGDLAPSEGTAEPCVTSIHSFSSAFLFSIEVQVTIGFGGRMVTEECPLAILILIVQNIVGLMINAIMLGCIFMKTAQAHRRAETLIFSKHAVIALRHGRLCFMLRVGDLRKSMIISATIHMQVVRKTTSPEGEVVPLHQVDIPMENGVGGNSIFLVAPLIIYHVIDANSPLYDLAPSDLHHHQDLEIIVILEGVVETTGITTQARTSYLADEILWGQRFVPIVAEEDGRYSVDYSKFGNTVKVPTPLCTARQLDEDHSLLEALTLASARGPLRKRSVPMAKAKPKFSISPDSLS
Method: as §1

wild-type Kir6.2 + SUR1 = system: wild-type Kir6.2 + SUR1; design: method as in Proks et al., 2010; Vedovato et al., 2015; settings: MWC-type model, fits to published data; ref Proks et al., 2010; Vedovato et al., 2015; cited from earlier work
Kir6.2*,C166S-GFP + SUR1 = Kir6.2*,C166S-GFP + SUR1 (Homo sapiens, UniProt Q14654, C166S); assay: Current inhibition in excised inside-out patches (patch-clamp fluorometry)
Chain of Kir6.2*,C166S-GFP + SUR1 (Q14654 whole entry C166S): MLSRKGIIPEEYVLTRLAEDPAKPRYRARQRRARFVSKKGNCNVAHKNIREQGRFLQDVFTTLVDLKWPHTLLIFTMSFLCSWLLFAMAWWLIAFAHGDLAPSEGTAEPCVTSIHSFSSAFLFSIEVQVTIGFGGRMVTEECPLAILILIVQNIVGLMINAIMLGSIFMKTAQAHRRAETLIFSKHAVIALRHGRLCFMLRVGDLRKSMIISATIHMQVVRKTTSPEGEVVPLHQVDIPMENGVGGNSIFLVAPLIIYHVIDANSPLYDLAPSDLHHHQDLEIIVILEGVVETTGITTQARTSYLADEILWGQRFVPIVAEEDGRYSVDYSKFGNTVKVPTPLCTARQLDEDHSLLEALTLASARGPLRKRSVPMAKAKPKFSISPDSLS
Chain of Kir6.2*,C166S-GFP + SUR1 (Q09428 whole entry partner): as the sequence (Q09428 whole entry partner, one chain of several) above

[3] = system: second nucleotide binding site of SUR1; design: method as in Puljung et al., 2019; settings: ref Puljung et al., 2019, cited from earlier work
[4] = excised patches, Hill fit with 1-Imax set to 0, n = 3
[5] = binding to stimulatory second nucleotide binding site of SUR1

h (Hill coefficient) current inhibition (Kir6.2-GFP + SUR1 [1]; Mg2+-free, Hill fit): 1.28
h (Hill coefficient) current inhibition (Kir6.2-GFP + SUR1 [2]; excised inside-out patches, Mg2+-free, Hill fit): 1.42
h (Hill coefficient) current inhibition (Kir6.2-GFP (no SUR1); excised inside-out patches, no SUR1, Mg2+-free, Hill fit): 1.15
current inhibition at 10 mM (Kir6.2*,C166S-GFP + SUR1; 10 mM ATP, excised patch): only partial inhibition
Compound: Nc1ncnc2c1ncn2[C@@H]1O[C@H](COP(=O)(O)OP(=O)(O)OP(=O)(O)O)[C@@H](O)[C@H]1O [ATP]
D (wild-type Kir6.2 + SUR1): 0.03
KA (wild-type Kir6.2 + SUR1): 30000 M⁻¹

inhibition at 100 µM (Kir6.2-GFP + SUR1 [1]; 100 µM tolbutamide, n = 3): 46.5%
inhibition at 100 µM (Kir6.2-GFP + SUR1 [2]; 100 µM tolbutamide, excised inside-out patches, n = 4): 57.7%
current inhibition by tolbutamide (Kir6.2-GFP (no SUR1); 100 µM tolbutamide, absence of SUR1, n = 5): not affected
Compound: CCCCNC(=O)NS(=O)(=O)c1ccc(C)cc1 [tolbutamide]

h (Hill coefficient) current inhibition (Kir6.2-GFP + SUR1 [2]; [4]): 0.87
IC50 (Kir6.2-GFP + SUR1 [2]; excised patches, Hill fit with 1-Imax set to 0, n = 3, read-out: IC50 current inhibition): 63.1 mM
h (Hill coefficient) current inhibition (Kir6.2*,C166S-GFP + SUR1; [4]): 1.12
Compound: CCN(CC)CC [triethylamine]

Compound: MgTNP-ADP
KA [3, 5]: 58000 M⁻¹
Kd [3, 5]: 0.017 mM
E (factor by which binding to SUR1 stabilised channel opening) ([3]; currents and binding measured in separate preparations): 2.2
